Measured values published in article PMC6044636 (ACS Omega, 2016).

Molecular target: A2AR (Homo sapiens, UniProt P29274)
Type: binding

Chain of A2AR (P29274 whole entry): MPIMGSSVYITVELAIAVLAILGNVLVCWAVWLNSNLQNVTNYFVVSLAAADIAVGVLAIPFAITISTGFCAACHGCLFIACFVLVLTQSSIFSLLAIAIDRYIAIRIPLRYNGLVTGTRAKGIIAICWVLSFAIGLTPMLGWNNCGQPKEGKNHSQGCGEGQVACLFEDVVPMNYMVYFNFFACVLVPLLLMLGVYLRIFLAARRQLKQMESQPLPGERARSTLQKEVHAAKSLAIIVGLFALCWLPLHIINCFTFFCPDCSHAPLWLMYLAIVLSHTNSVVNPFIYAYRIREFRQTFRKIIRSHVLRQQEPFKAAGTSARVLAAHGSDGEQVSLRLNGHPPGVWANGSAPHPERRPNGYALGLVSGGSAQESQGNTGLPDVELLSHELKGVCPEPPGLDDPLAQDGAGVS

## Cn1c(-n2nccn2)nc2c(N)nc(CCC3CCCCC3)nc21 [Compound 8, 2-(2-Cyclohexylethyl)-9-methyl-8-(2H-1,2,3-triazol-2-yl)-9H-purin-6-amine]
  Ki: 1.2 nM
